This passage reports inhibition, Activity and viability results from ChEMBL document CHEMBL5236599, “Design, synthesis and biological evaluation of cajanonic acid A analogues as potent PPAR γ antagonists” (Bioorg Med Chem Lett, 2023).

Series [1] deals with T1, Peroxisome proliferator-activated receptor gamma (Homo sapiens) (UniProt P37231).
T1 sequence (whole entry): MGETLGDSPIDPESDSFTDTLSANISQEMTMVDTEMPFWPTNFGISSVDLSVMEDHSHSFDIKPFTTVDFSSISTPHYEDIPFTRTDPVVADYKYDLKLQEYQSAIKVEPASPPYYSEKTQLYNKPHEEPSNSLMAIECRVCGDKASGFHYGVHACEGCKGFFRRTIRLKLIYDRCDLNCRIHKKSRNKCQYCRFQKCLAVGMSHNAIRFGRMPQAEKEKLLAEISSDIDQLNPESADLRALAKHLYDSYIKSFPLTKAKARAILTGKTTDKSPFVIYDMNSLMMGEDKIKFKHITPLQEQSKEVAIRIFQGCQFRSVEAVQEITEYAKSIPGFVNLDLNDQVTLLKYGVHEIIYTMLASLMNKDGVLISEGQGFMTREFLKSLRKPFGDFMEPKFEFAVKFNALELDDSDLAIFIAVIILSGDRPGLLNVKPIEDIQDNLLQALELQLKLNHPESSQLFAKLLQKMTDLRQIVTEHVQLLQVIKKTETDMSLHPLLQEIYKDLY
Nature of the series: Antagonist activity at PPAR-gamma (unknown origin) transfected in human HEK293 cells assessed as decrease in rosiglitazone-induced receptor transactivation at 10 uM by dual-luciferase reporter gene assay relative to control. Format: cell-based. In general terms: Reporter assays use an easily measured gene product as a stand-in for the process of interest.

The nature of series [2]: Induction of insulin-sensitizing activity in insulin-resistant human HepG2 cells assessed as increase in glucose consumption at 0.1 uM relative to control. The format is functional.
The nature of series [3]: Induction of insulin-sensitizing activity in insulin-resistant human HepG2 cells assessed as glucose consumption at 0.1 uM (reference value: 5.83 +/-0.101 mM). The format is functional.
A short description of series [4]: Induction of insulin-sensitizing activity in insulin-resistant mouse 3T3-L1 cells assessed as glucose consumption at 0.1 uM (reference value: 3.354 +/- 0.342 mM). The format is functional.
The nature of series [5]: Induction of insulin-sensitizing activity in insulin-resistant mouse 3T3-L1 cells assessed as increase in glucose consumption at 0.1 uM relative to control. Format: functional.
For series [6], the target named is T1, Peroxisome proliferator-activated receptor gamma (Homo sapiens). Nature of the series: Antagonist activity at PPAR-gamma (unknown origin) transfected in human HEK293 cells assessed as decrease in rosiglitazone-induced receptor transactivation at 1 uM by dual-luciferase reporter gene assay relative to control. The format is cell-based.
The nature of series [7]: Cytotoxicity against human HepG2 cells assessed as cell viability at 0.1 uM. Format: toxicity, cell-based. The conditions noted are these: read-out: Activity.

Take `COc1ccc(-c2cccc(C(=O)Cc3cc(OC)c(CC=C(C)C)c(O)c3C(=O)O)c2)c(F)c1`: in series [1], the inhibition (usually the change of the read-out against control, counted positive when it falls) came to 16.4%. Moreover, the Activity in series [2] came out at 37.05%; in series [3], 7.992 mM; in series [4] it was 6.591 mM; in series [5], 75.81%.

Turning to `COc1cc(CC(=O)c2cccc(-c3ccccc3Cl)c2)c(C(=O)O)c(O)c1CC=C(C)C`, the inhibition in series [1] (filed as antagonist) is 57.5%; in series [6], 24.1%. Moreover, the Activity turned out to be 43.55% in series [2], 8.371 mM in series [3], 5.969 mM in series [4] and 59.21% in series [5].

As for `CN(CCOc1ccc(CC2SC(=O)NC2=O)cc1)c1ccccn1` (centres undefined) [ROSIGLITAZONE], the Activity in series [2] is on record as 22.74%; in series [3], 7.15 mM; in series [4], 5.421 mM; in series [5], 44.58%.

With `COc1cc(CC(=O)c2cccc(-c3ccnc(Cl)c3)c2)c(C(=O)O)c(O)c1CC=C(C)C`, the inhibition turned out to be 11.1% in series [1] and 12.7% in series [6]. Further, the Activity in series [2] is 25.88%; in series [3], 7.34 mM; in series [4], 5.501 mM; in series [5], 46.74%.

Turning to `COc1cc(CC(=O)c2cccc(-c3ccc(C)cc3)c2)c(C(=O)O)c(O)c1CC=C(C)C`, the Activity in series [2] was determined as 35.25%; in series [3] it was 7.886 mM; in series [4], 7.712 mM; in series [5], 105.7%.

On to `CCc1ccc(-c2cccc(C(=O)Cc3c(CC=C(C)C)c(OC)cc(O)c3C(=O)O)c2)cc1`, for which the figures for the inhibition in series [1] (filed as antagonist) and in series [6] were 60.2% and -8.3%, respectively. For the same compound, the Activity in series [2] turned out to be 40.66%; in series [3] it was 8.202 mM; in series [4] it was 6.655 mM; in series [5], 77.5%.

Regarding `O=C(Nc1ccccc1)c1cc([N+](=O)[O-])ccc1Cl`, the inhibition in series [1] (filed as antagonist) turned out to be 99.1%; in series [6], 10.9%.

On to `COc1cc(O)c(C(=O)O)c(CC(=O)c2cccc(C3CC3)c2)c1CC=C(C)C`, for which the inhibition in series [1] (filed as antagonist) was determined as 81.2%; in series [6], 34.6%. Besides, the Activity in series [2] is on record as 2.94%; in series [3], 6.002 mM; in series [4], 5.099 mM; in series [5], 36%.

In the case of `COc1ccc(-c2cccc(C(=O)Cc3c(CC=C(C)C)c(OC)cc(O)c3C(=O)O)c2)c(F)c1`, the values for the inhibition in series [1] (filed as antagonist) and in series [6] were 84.7% and -0.4%, respectively. For the same compound, the Activity in series [2] is 18.83%; in series [3], 6.928 mM; in series [4], 7.335 mM; in series [5], 95.64%.

Consider `COc1cc(CC(=O)c2cccc(-c3ccsc3)c2)c(C(=O)O)c(O)c1CC=C(C)C`, for which the inhibition in series [1] (filed as antagonist) was determined as 47.7%; in series [6] it was 7.7%. Further, the Activity worked out at 39.36% in series [2], 8.126 mM in series [3], 8.145 mM in series [4] and 117.26% in series [5].

Consider `CCc1ccc(-c2cccc(C(=O)Cc3cc(OC)c(CC=C(C)C)c(O)c3C(=O)O)c2)cc1`, for which the inhibition in series [1] was found to be 8.1%. In addition, the Activity came out at 36.01% in series [2], 7.93 mM in series [3], 7.042 mM in series [4] and 87.84% in series [5].

In the case of `COc1cc(O)c(C(=O)O)c(CC(=O)c2cccc(-c3ccc(C)cc3)c2)c1CC=C(C)C`, the figures for the inhibition in series [1] (filed as antagonist) and in series [6] were 64.5% and 23.9%, respectively. Moreover, the Activity in series [2] was determined as 28.49%; in series [3] it was 7.492 mM; in series [4] it was 7.488 mM; in series [5] it was 99.73%.

In the case of `COc1cc(O)c(C(=O)O)c(CC(=O)c2cccc(-c3cccnc3)c2)c1CC=C(C)C`, the results for the inhibition in series [1] (filed as antagonist) and in series [6] were 82.5% and -3.8%, respectively. Besides, the Activity in series [2] was 1.49%; in series [3] it was 5.917 mM; in series [4], 3.107 mM; in series [5], -17.14%. Further, in series [7], the viability at 0.1 µM was under 80%.

Take `COc1cc(O)c(C(=O)O)c(CC(=O)c2cccc(-c3cccc(C(F)(F)F)c3)c2)c1CC=C(C)C`: the inhibition in series [1] was 39.6%; in series [6] it was -2.4%. For the same compound, the Activity is on record as 42.45% in series [2], 8.306 mM in series [3], 6.427 mM in series [4] and 71.43% in series [5].

Take `COc1ccc(-c2cccc(C(=O)Cc3c(CC=C(C)C)c(OC)cc(O)c3C(=O)O)c2)cc1`: the inhibition was 79.5% in series [1] (filed as antagonist) and 36.9% in series [6]. For the same compound, the Activity worked out at 24.38% in series [2], 7.252 mM in series [3], 7.69 mM in series [4] and 105.12% in series [5].

For the compound `COc1cc(O)c(C(=O)O)c(CC(=O)c2cccc(-c3ccnc(Cl)c3)c2)c1CC=C(C)C`, the inhibition was determined as 92.3% in series [1] (filed as antagonist) and 19.9% in series [6]. Besides, the Activity in series [2] is reported as 8.36%; in series [3] it was 6.318 mM; in series [4] it was 5.579 mM; in series [5] it was 48.82%. The viability at 0.1 µM in series [7] was under 80%.

On to `COc1cc(CC(=O)c2cccc(-c3cncnc3)c2)c(C(=O)O)c(O)c1CC=C(C)C`, for which the inhibition in series [1] was found to be 10.3%; in series [6] it was 4.6%. Further, the Activity in series [2] came to 10.28%; in series [3], 6.43 mM; in series [4], 4.09 mM; in series [5], 9.11%. Further, the viability at 0.1 µM in series [7] is under 80%.

`COc1ccc(-c2cccc(C(=O)Cc3cc(OC)c(CC=C(C)C)c(O)c3C(=O)O)c2)cc1`: in series [1], the inhibition worked out at 20.8%. Also, the Activity in series [2] came out at 27.56%; in series [3], 7.438 mM; in series [4], 7.533 mM; in series [5] it was 100.93%.

As for `COc1cc(O)c(C(=O)O)c(CC(=O)c2cccc(-c3ccccc3C(F)(F)F)c2)c1CC=C(C)C`, in series [1] (filed as antagonist), the inhibition was determined as 80.1%. Moreover, the Activity was found to be 41.5% in series [2], 8.251 mM in series [3], 5.688 mM in series [4] and 51.71% in series [5].

As to `COc1cc(CC(=O)c2cccc(-c3cccc(C(F)(F)F)c3)c2)c(C(=O)O)c(O)c1CC=C(C)C`, the inhibition in series [1] (filed as antagonist) was 50.9%; in series [6], -6.1%. The Activity in series [2] is given as 48.32%; in series [3], 8.649 mM; in series [4], 5.151 mM; in series [5], 37.4%.

Regarding `COc1cc(CC(=O)c2cccc(-c3ccc(Cl)cc3)c2)c(C(=O)O)c(O)c1CC=C(C)C`, the inhibition in series [1] was 26.6%. For the same compound, the Activity in series [2] is given as 39.56%; in series [3] it was 8.138 mM; in series [4], 7.165 mM; in series [5] it was 91.12%.

`COc1cc(CC(=O)c2cccc(-c3cccnc3)c2)c(C(=O)O)c(O)c1CC=C(C)C`: in series [1], the inhibition came to 31.7%. In addition, the Activity in series [2] worked out at 18.84%; in series [3] it was 6.93 mM; in series [4] it was 4.554 mM; in series [5] it was 21.46%. Besides, the viability at 0.1 µM in series [7] was under 80%.

On to `COc1cc(O)c(C(=O)O)c(CC(=O)c2cccc(-c3ccc(Cl)cc3)c2)c1CC=C(C)C`, for which the inhibition stood at 71% in series [1] (filed as antagonist) and 19.3% in series [6]. The Activity came to 38.76% in series [2], 8.091 mM in series [3], 7.257 mM in series [4] and 93.55% in series [5].

For the compound `COc1cc(O)c(C(=O)O)c(CC(=O)c2ccccc2)c1CC=C(C)C`, the inhibition in series [1] came out at 39%; in series [6], 12.9%. Moreover, the values for the Activity in series [2] and in series [3] were 20.66% and 6.729 mM, respectively.

Take `COc1cc(O)c(C(=O)O)c(CC(=O)c2cccc(-c3ccc(F)cc3)c2)c1CC=C(C)C`: the inhibition in series [1] (filed as antagonist) was 66%; in series [6], 16%. Besides, the Activity in series [2] amounted to 29.73%; in series [3], 7.564 mM; in series [4], 6.637 mM; in series [5], 77.02%.

With `COc1cc(CC(=O)c2cccc(C3CC3)c2)c(C(=O)O)c(O)c1CC=C(C)C`, the values for the inhibition in series [1] (filed as antagonist) and in series [6] were 77.7% and 17.7%, respectively. The Activity came to 14.83% in series [2], 6.696 mM in series [3], 5.686 mM in series [4] and 51.66% in series [5].
